Test results from patent publication US20240246935A1 (Plexium, Inc., priority 2021, published 2024).

Assays:
IKZF2 (Helios) = assay: IKZF2 reporter degradation assay (HEK 293T IKZF2-mNeonGreen reporter cell line); type: cell-based, human; details: 1 μM compound, 24 hour incubation, HEK 293T IKZF2-mNeonGreen reporter
How it was run: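 HEK 293T lines stably expressing each IKZF-GGGGS×3-mNeonGreen-P2A-mScarlet reporter, 4000 cells/well in FluoroBrite medium, treated with compound (≤0.5% DMSO) for 24 h at 37 °C. Imaging measured percent mNeonGreen-positive cells, with mScarlet used for segmentation; DC50 from four-parameter logistic fit.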

[1] = molecular target: human E3 ligase component cereblon (CRBN) (Homo sapiens (Human), UniProt Q96SW2); assay: Cereblon (CRBN) target engagement, NanoBRET TE Intracellular E3 Ligase Assay in transfected HEK-293T cells; details: read-out: CRBN Binding EC50
How it was run: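 Live HEK-293T cells co-transfected overnight with NanoLuc-CRBN (CRBN at NanoLuc C-terminus) and DDB1 vectors (10:990 ng) were given CRBN tracer and an 11-point compound series for 2 h at 37° C. BRET read at 450/610 nm with extracellular NanoLuc inhibitor present; IC50 from four-parameter logistic fit.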

human E3 ligase component cereblon (CRBN), sequence (Q96SW2 whole entry): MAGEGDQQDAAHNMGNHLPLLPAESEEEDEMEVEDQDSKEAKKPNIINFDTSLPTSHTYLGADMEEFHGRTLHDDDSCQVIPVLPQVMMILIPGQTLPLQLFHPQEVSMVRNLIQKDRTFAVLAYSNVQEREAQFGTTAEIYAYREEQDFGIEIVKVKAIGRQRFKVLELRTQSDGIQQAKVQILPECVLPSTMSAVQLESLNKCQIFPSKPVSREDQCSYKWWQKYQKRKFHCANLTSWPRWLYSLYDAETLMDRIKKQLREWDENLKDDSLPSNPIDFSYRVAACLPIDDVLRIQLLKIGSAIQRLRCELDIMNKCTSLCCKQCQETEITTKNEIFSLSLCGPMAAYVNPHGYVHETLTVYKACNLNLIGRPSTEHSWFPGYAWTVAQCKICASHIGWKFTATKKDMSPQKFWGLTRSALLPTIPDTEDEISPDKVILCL
human E3 ligase component cereblon (CRBN), sequence (Q16531 whole entry partner): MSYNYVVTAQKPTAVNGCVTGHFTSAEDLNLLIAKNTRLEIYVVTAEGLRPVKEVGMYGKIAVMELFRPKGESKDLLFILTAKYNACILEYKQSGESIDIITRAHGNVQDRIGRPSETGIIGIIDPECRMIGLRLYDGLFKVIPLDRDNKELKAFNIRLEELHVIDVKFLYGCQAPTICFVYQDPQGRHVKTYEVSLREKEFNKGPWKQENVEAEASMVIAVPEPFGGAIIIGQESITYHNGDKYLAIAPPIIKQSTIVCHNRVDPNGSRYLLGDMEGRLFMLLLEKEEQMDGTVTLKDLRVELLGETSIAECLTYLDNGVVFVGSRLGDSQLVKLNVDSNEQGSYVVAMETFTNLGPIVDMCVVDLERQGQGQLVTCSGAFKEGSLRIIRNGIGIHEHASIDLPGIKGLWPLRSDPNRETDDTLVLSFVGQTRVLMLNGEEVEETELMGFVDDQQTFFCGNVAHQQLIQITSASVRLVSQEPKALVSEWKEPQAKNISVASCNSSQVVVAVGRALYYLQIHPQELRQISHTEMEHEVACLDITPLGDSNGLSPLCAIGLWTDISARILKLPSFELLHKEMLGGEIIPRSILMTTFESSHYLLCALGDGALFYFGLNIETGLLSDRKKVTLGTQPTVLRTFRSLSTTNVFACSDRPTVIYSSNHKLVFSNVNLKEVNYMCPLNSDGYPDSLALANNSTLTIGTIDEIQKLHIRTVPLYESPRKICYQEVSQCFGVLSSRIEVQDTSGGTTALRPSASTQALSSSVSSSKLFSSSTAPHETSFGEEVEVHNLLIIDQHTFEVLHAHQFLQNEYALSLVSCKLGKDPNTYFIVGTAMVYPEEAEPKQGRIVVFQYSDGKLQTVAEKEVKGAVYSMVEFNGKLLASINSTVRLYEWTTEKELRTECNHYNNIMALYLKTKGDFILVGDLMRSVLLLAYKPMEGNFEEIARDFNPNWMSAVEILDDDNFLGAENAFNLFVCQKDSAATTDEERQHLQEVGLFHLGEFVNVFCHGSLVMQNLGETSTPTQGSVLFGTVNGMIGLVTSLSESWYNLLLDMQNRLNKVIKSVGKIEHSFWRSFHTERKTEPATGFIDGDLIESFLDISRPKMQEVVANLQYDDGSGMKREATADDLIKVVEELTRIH

## O=C1CCC(N2Cc3cc(O[C@H]4CCCC[C@@H]4N4CC(c5cccc(OC(F)(F)F)c5)C4)ccc3C2=O)C(=O)N1 (stereo partly drawn) [Compound 35, 3-(1-oxo-5-(((1S,2S)-2-(3-(3-(trifluoromethoxy)phenyl)azetidin-1-yl)cyclohexyl)oxy)isoindolin-2-yl)piperidine-2,6-dione]
IKZF2 (Helios)
  IKZF2 % Degradation @ 1 μM: 84.6%
[1]
  EC50: 17 nM

## O=C1CCC(N2Cc3cc(O[C@H]4CCCC[C@@H]4N4CC(c5cccc(F)c5)C4)ccc3C2=O)C(=O)N1 (stereo partly drawn) [Compound 111, 3-(5-(((1S,2S)-2-(3-(3-fluorophenyl)azetidin-1-yl)cyclohexyl)oxy)-1-oxoisoindolin-2-yl)piperidine-2,6-dione]
IKZF2 (Helios)
  IKZF2 % Degradation @ 1 μM: 76.5%
[1]
  EC50: 6 nM

## O=C1CCC(N2Cc3cc(O[C@H]4CCCC[C@@H]4N4CC(c5ccccc5OC(F)(F)F)C4)ccc3C2=O)C(=O)N1 (stereo partly drawn) [Compound 36, 3-(1-oxo-5-(((1S,2S)-2-(3-(2-(trifluoromethoxy)phenyl)azetidin-1-yl)cyclohexyl)oxy)isoindolin-2-yl)piperidine-2,6-dione]
IKZF2 (Helios)
  IKZF2 % Degradation @ 1 μM: 82.3%
[1]
  EC50: 31 nM

## O=C1CCC(N2Cc3cc(O[C@H]4CCCC[C@@H]4N4CC(c5ccc(O)cc5)C4)ccc3C2=O)C(=O)N1 (stereo partly drawn) [Compound 132, 3-(5-(((1S,2S)-2-(3-(4-hydroxyphenyl)azetidin-1-yl)cyclohexyl)oxy)-1-oxoisoindolin-2-yl)piperidine-2,6-dione]
IKZF2 (Helios)
  IKZF2 % Degradation @ 1 μM: 77.2%
[1]
  EC50: 11 nM

## O=C1CCC(N2Cc3cc(O[C@H]4CCCC[C@@H]4N4CC(c5ccccc5C(F)(F)F)C4)ccc3C2=O)C(=O)N1 (stereo partly drawn) [Compound 129, 3-(1-oxo-5-(((1S,2S)-2-(3-(2-(trifluoromethyl)phenyl)azetidin-1-yl)cyclohexyl)oxy)isoindolin-2-yl)piperidine-2,6-dione]
IKZF2 (Helios)
  IKZF2 % Degradation @ 1 μM: 83.8%
[1]
  EC50: 17 nM

## O=C1CCC(N2Cc3cc(O[C@H]4CCCC[C@@H]4N4CC(c5ccccc5)C4)c(F)cc3C2=O)C(=O)N1 (single isomer, unassigned) [Compound 52]
IKZF2 (Helios)
  IKZF2 % Degradation @ 1 μM: 90.5%
[1]
  EC50: 11 nM

## O=C1CC[C@@H](N2Cc3cc(O[C@H]4CCCC[C@@H]4N4CC(c5ccccc5)C4)ccc3C2=O)C(=O)N1 [Compound 125, (R)-3-(1-oxo-5-(((1S,2S)-2-(3-phenylazetidin-1-yl)cyclohexyl)oxy)isoindolin-2-yl)piperidine-2,6-dione]
IKZF2 (Helios)
  IKZF2 % Degradation @ 1 μM: 83.2%
[1]
  EC50: 6 nM

## O=C(O)CC(O)(CC(=O)O)C(=O)O.O=C1CCC(N2Cc3cc(O[C@H]4CCCC[C@@H]4N4CC(c5ccccc5)C4)ccc3C2=O)C(=O)N1 (stereo partly drawn) [Compound 130, 3-(1-oxo-5-(((1S,2S)-2-(3-phenylazetidin-1-yl)cyclohexyl)oxy)isoindolin-2-yl)piperidine-2,6-dione 2-hydroxypropane-1,2,3-tricarboxylate]
IKZF2 (Helios)
  IKZF2 % Degradation @ 1 μM: 84.8%
[1]
  EC50: 4 nM

## O=C1CCC(N2Cc3cc(O[C@H]4CCCC[C@@H]4N4CC(c5ccc(F)cc5)C4)ccc3C2=O)C(=O)N1 (single isomer, unassigned) [Compound 50]
IKZF2 (Helios)
  IKZF2 % Degradation @ 1 μM: 73.6%
[1]
  EC50: 4 nM

## O=C1CCC(N2Cc3cc(O[C@H]4CCCC[C@@H]4N4CC(c5cccc(F)c5F)C4)ccc3C2=O)C(=O)N1 (stereo partly drawn) [Compound 64, 3-(5-(((1S,2S)-2-(3-(2,3-difluorophenyl)azetidin-1-yl)cyclohexyl)oxy)-1-oxoisoindolin-2-yl)piperidine-2,6-dione]
IKZF2 (Helios)
  IKZF2 % Degradation @ 1 μM: 76.3%
[1]
  EC50: 11 nM

## O=C1CCC(N2Cc3cc(O[C@H]4CCCC[C@@H]4N4CC(c5ccc(N6CCOCC6)cc5)C4)ccc3C2=O)C(=O)N1 (stereo partly drawn) [Compound 124, 3-(5-(((1S,2S)-2-(3-(4-morpholinophenyl)azetidin-1-yl)cyclohexyl)oxy)-1-oxoisoindolin-2-yl)piperidine-2,6-dione]
IKZF2 (Helios)
  IKZF2 % Degradation @ 1 μM: 70.2%
[1]
  EC50: 2 nM

## O=C1CCC(N2Cc3cc(O[C@H]4CCCCC[C@@H]4N4CC(c5ccccc5)C4)ccc3C2=O)C(=O)N1 (stereo partly drawn) [Compound 131, 3-(1-oxo-5-(((1S,2S)-2-(3-phenylazetidin-1-yl)cycloheptyl)oxy)isoindolin-2-yl)piperidine-2,6-dione]
IKZF2 (Helios)
  IKZF2 % Degradation @ 1 μM: 92.3%
[1]
  EC50: 11 nM

## N#Cc1cc(Cl)ccc1C1CN([C@@H]2CCCC[C@@H]2Oc2ccc3c(c2)CN(C2CCC(=O)NC2=O)C3=O)C1 (mixture of isomers) [Compound 100, Rac-5-chloro-2-(1-((cis)-2-((2-(2,6-dioxopiperidin-3-yl)-1-oxoisoindolin-5-yl)oxy)cyclohexyl)azetidin-3-yl)benzonitrile]
IKZF2 (Helios)
  IKZF2 % Degradation @ 1 μM: <15%
[1]
  EC50: 25 nM

## O=C1CCC(N2Cc3cc(O[C@H]4CCCC[C@@H]4N4CC(c5cccc(O)c5)C4)ccc3C2=O)C(=O)N1 (stereo partly drawn) [Compound 134, 3-(5-(((1S,2S)-2-(3-(3-hydroxyphenyl)azetidin-1-yl)cyclohexyl)oxy)-1-oxoisoindolin-2-yl)piperidine-2,6-dione]
IKZF2 (Helios)
  IKZF2 % Degradation @ 1 μM: 75%
[1]
  EC50: 12 nM

## O=C1CCC(N2Cc3c(ccc(O[C@H]4CCCC[C@@H]4N4CC(c5ccccc5)C4)c3F)C2=O)C(=O)N1 (single isomer, unassigned) [Compound 66]
IKZF2 (Helios)
  IKZF2 % Degradation @ 1 μM: 74.8%
[1]
  EC50: 24 nM

## O=C1CCC(N2Cc3c(ccc(O[C@H]4CCCC[C@@H]4N4CC(c5ccccc5)C4)c3F)C2=O)C(=O)N1 (single isomer, unassigned) [Compound 65]
IKZF2 (Helios)
  IKZF2 % Degradation @ 1 μM: 75.1%
[1]
  EC50: 52 nM

## O=C1CCC(N2Cc3cc(O[C@H]4CCCC[C@@H]4N4CC(c5ccccc5O)C4)ccc3C2=O)C(=O)N1 (stereo partly drawn) [Compound 133, 3-(5-(((1S,2S)-2-(3-(2-hydroxyphenyl)azetidin-1-yl)cyclohexyl)oxy)-1-oxoisoindolin-2-1)piperidine-2,6-dione]
IKZF2 (Helios)
  IKZF2 % Degradation @ 1 μM: 56.4%
[1]
  EC50: 14 nM
